Test results reported in US8846671B2, “Heterocyclic alkynyl benzene compounds and medical compositions and uses thereof” (Guangzhou Institute of Biomedicine and Health, Chinese …, priority 2010, dated 2014).
Counter-ions that a name gives are not always drawn. Like-named read-outs stand apart in the source and are kept apart here. Values belong to the molecule of their own block, whether it stands above or below them.

Legend:
[1] = Pharmacokinetics and bioavailability in rats; type: in vivo; details: SD rats; for bioavailability / BA(% Oral bioavailability): calculated according to AUC data, PO vs IV; for bioavailability: read-out: BA(% Oral bioavailability)
Description: Pharmacokinetics and bioavailability in rats. […] The blood samples were collected at the proper time points after administration, add heparin-anticoagulant, and the supernatants of the blood samples were collected (3000 rpm, 10 min) and stored at -20° C. for HPLC-MS analysis. After protein-precipitation procedure with acetonitrile, supernatants were collected after 3000 rpm, 10 min for analysis with HPLC-MS. The data were analyzed with software DAS2.0 to separately acquire the parameters of compartment models and non-compartment models. The bioavailability was calculated according to AUC data.

[2] = tested on: K562R cells (imatinib-resistant cell line); test: tumor cell proliferation, MTT or CCK8 assay, 72 h incubation; type: cell-based; details: Homo sapiens, K-562R, read-out: IC50 on tumor cell proliferation, K562R cells
[3] = molecular target: BAF3-T315I cells (Ba/F3 cell line stably expressing BCR/ABL T315I) (Homo sapiens, UniProt P00519, T315I, cells depend on it); test: as above; type: cell-based, mice
Description: (§1) The heterocyclic alkynyl benzene compounds at different concentrations (1×10^−10˜1×10^−5M) were incubated for 72 hours individually applied to 6 cell lines K562 (human CML cell line), MOLT-4 (human ALL cell line), U937 (human CML cell line), MEG-01 (human CML cell line), L78 (human lung cancer cell line), Ba/F3-T315I (mice Pro-B cells transformed with Bcr-AblT315I and STI57′-resistant cell line). After incubation for 72 hrs, cell proliferation was then determined by MTT assay or CCK8 assay, and 4 hr incubation is further conducted, the absorbance at 570 nm (CCK8, 450 nm, 650 nm) was measured using enzyme Microplate Reader.

[4] = tested on: MOLT-4 (Human acute lymphoblastic leukemia cell line); test: as above; type: cell-based; details: MOLT-4, 72 h, read-out: IC50 on tumor cell proliferation, MOLT-4
Description: as §1, with “Reader. […] Based on the inhibition potency of the heterocyclic alkynyl benzene compounds on the cell proliferation, IC50 values were calculated and summarized in the Table 1 and Table 2 (The compounds used were synthesized by Examples 1-40, and the compounds are marked with Drug No. series in Table 1).” for “Reader.”

[5] = tested on: K562 (human chronic myelogenous leukemia cell line); test: as above; type: cell-based; details: K562, 72 h, read-out: IC50 on tumor cell proliferation, K562
Description: as §1, with “Reader. […] Based on the inhibition potency of the heterocyclic alkynyl benzene compounds on the cell proliferation, IC50 values were calculated and summarized in the Table 1 and Table 2 (The compounds used were synthesized by Examples 1-40, and the compounds are marked with Drug No. series in Table 1).” for “Reader.”

[6] = both sexes, Sprague-Dawley, rat, plasma, iv, 10 mg/kg, IV 10 mg/kg
[7] = both sexes, Sprague-Dawley, rat, plasma, po, 20 mg/kg, PO 20 mg/kg
[8] = both sexes, Sprague-Dawley, rat, plasma, po
[9] = both sexes, Sprague-Dawley, rat, plasma, iv, 2.5 mg/kg, IV 2.5 mg/kg
[10] = both sexes, Sprague-Dawley, rat, plasma, po, 25 mg/kg, PO 25 mg/kg
[11] = both sexes, Sprague-Dawley, rat, plasma, po, 25 mg/kg, PO 25 mg/kg, read-out: Cmax
[12] = both sexes, Sprague-Dawley, rat, plasma, po, 25 mg/kg, PO 25 mg/kg, read-out: Tmax
[13] = both sexes, Sprague-Dawley, rat, plasma, iv, 5 mg/kg, IV 5 mg/kg
[14] = both sexes, Sprague-Dawley, rat, plasma, iv, 5 mg/kg, IV 5 mg/kg, read-out: Cmax
[15] = both sexes, Sprague-Dawley, rat, plasma, iv, 5 mg/kg, IV 5 mg/kg, read-out: Tmax
[16] = both sexes, Sprague-Dawley, rat, plasma, iv, 25 mg/kg, IV 25 mg/kg
[17] = both sexes, Sprague-Dawley, rat, plasma, po, 5 mg/kg, PO 5 mg/kg
[18] = Ba/F3 expressing BCR/ABL T315I, 72 h, Table 1; read-out: IC50 on tumor cell proliferation, BAF3-T315I cells
[19] = IV 5 mg/kg, dihydrochloride, 5 mg/kg
[20] = PO 25 mg/kg, dihydrochloride, 25 mg/kg

- AUC(0-inf) [1, 6]: 305000 ng·h/mL
- half-life [1, 6]: 43.9 h
- Cmax ([1]; both sexes, Sprague-Dawley, rat, plasma, iv, 10 mg/kg, IV 10 mg/kg, read-out: Cmax): 19600 ng/mL
- Tmax ([1]; both sexes, Sprague-Dawley, rat, plasma, iv, 10 mg/kg, IV 10 mg/kg, read-out: Tmax): 0.033 h
- AUC(0-inf) [1, 7]: 70400 ng·h/mL
- half-life [1, 7]: 7.55 h
- Cmax ([1]; both sexes, Sprague-Dawley, rat, plasma, po, 20 mg/kg, PO 20 mg/kg, read-out: Cmax): 1900 ng/mL
- Tmax ([1]; both sexes, Sprague-Dawley, rat, plasma, po, 20 mg/kg, PO 20 mg/kg, read-out: Tmax): 20 h
- bioavailability [1, 8]: 11.5%
SMILES: Cc1cn(-c2cc(NC(=O)c3ccc(C)c(C#Cc4cnc(NC(C)C)nc4)c3)cc(C(F)(F)F)c2)cn1 [D752 mesylate salt, 3-(2-(2-(isopropylamino)pyrimidin-5-yl)ethynyl)-4-methyl-N-(3-(4-methyl-1H-imidazol-1-yl)-5-(trifluoromethyl)phenyl)benzamide]

- AUC(0-inf) [1, 9]: 3740 ng·h/mL
- half-life [1, 9]: 26.2 h
- Cmax ([1]; both sexes, Sprague-Dawley, rat, plasma, iv, 2.5 mg/kg, IV 2.5 mg/kg, read-out: Cmax): 510 ng/mL
- Tmax ([1]; both sexes, Sprague-Dawley, rat, plasma, iv, 2.5 mg/kg, IV 2.5 mg/kg, read-out: Tmax): 0.033 h
- AUC(0-inf) [1, 10]: 23700 ng·h/mL
- half-life [1, 10]: 8.3 h
- Cmax [1, 11]: 1260 ng/mL
- Tmax [1, 12]: 6.25 h
- bioavailability [1, 8]: 63.3%
SMILES: CCNc1ncc(C#Cc2cc(C(=O)Nc3cc(-n4cnc(C)c4)cc(C(F)(F)F)c3)ccc2C)cn1 [D755 hydrochloride salt, 3-(2-(2-(ethylamino)pyrimidin-5-yl)ethynyl)-4-methyl-N-(3-(4-methyl-1H-imidazol-1-yl)-5-(trifluoromethyl)phenyl)benzamide]

- AUC(0-∞) ([1]; PO 25 mg/kg, 25 mg/kg): 62208 ng·h/mL
- Tmax ([1]; PO 25 mg/kg, 25 mg/kg): 7.75 h
- BA(% Oral bioavailability) [1]: 19%
- AUC(0-inf) [1, 13]: 65500 ng·h/mL
- half-life [1, 13]: 5.6 h
- Cmax [1, 14]: 15300 ng/mL
- Tmax [1, 15]: 0.033 h
- half-life [1, 10]: 7.18 h
- Cmax [1, 11]: 3620 ng/mL
SMILES: Cc1cn(-c2cc(NC(=O)c3ccc(C)c(C#Cc4cnc5[nH]ncc5c4)c3)cc(C(F)(F)F)c2)cn1 [D767 hydrochloride salt, 3-(2-(1H-pyrazolo[3,4-b]pyridin-5-yl)ethynyl)-4-methyl-N-(3-(4-methyl-1H-imidazol-1-yl)-5-(trifluoromethyl)phenyl)benzamide]

- BA(% Oral bioavailability) [1]: 27.1%
- AUC(0-inf) [1, 16]: 48600 ng·h/mL
- half-life [1, 16]: 7.8 h
- Cmax ([1]; both sexes, Sprague-Dawley, rat, plasma, iv, 25 mg/kg, IV 25 mg/kg, read-out: Cmax): 3090 ng/mL
- Tmax ([1]; both sexes, Sprague-Dawley, rat, plasma, iv, 25 mg/kg, IV 25 mg/kg, read-out: Tmax): 2 h
- AUC(0-inf) [1, 17]: 35800 ng·h/mL
- half-life [1, 17]: 7.5 h
- Cmax ([1]; both sexes, Sprague-Dawley, rat, plasma, po, 5 mg/kg, PO 5 mg/kg, read-out: Cmax): 11000 ng/mL
- Tmax ([1]; both sexes, Sprague-Dawley, rat, plasma, po, 5 mg/kg, PO 5 mg/kg, read-out: Tmax): 0.033 h
SMILES: CNc1ncc(C#Cc2cc(C(=O)Nc3cc(-n4cnc(C)c4)cc(C(F)(F)F)c3)ccc2C)cn1 [D800 hydrochloride salt, 4-methyl-N-(3-(4-methyl-1H-imidazol-1-yl)-5-(trifluoromethyl)phenyl)-3-(2-(2-(methylamino)pyrimidin-5-yl)ethynyl)benzamide]

- IC50 ([2]; imatinib-resistant K562R): 58 nM
- GI50 [3, 18]: 19.5 nM
- IC50 ([4]; MTT or CCK8, nM): > 100 nM
- IC50 ([5]; MTT or CCK8, nM): 0.724 nM
SMILES: Cc1ccc(C(=O)Nc2cccc(C(F)(F)F)c2)cc1C#Cc1cnc2[nH]ncc2c1 [D821, 3-(2-(1H-pyrazolo[3,4-b]pyridin-5-yl)ethynyl)-4-methyl-N-(3-(trifluoromethyl)phenyl)benzamide]

- AUC(0-∞) [1, 19]: 2922.411 ng·h/mL
- Cmax [1, 19]: 1375.625 ng/mL
- T1/2 [1, 19]: 5.557 h
- Tmax [1, 19]: 0.067 h
- AUC(0-∞) [1, 20]: 7108.253 ng·h/mL
- Cmax [1, 20]: 390.5 ng/mL
- T1/2 [1, 20]: 10.55 h
- BA(% Oral bioavailability) ([1]; dihydrochloride): 48.7%
- Tmax [1, 12]: 6 h
SMILES: Cc1ccc(C(=O)Nc2ccc(CN3CCN(C)CC3)c(C(F)(F)F)c2)cc1C#Cc1cnc2[nH]ncc2c1 [D824 hydrochloride salt, 3-(2-(1H-pyrazolo[3,4-b]pyridin-5-yl)ethynyl)-4-methyl-N-(4-((4-methylpiperazin-1-yl)methyl)-3-(trifluoromethyl)phenyl)benzamide dihydrochloride]

- AUC(0-inf) [1, 13]: 11800 ng·h/mL
- half-life [1, 13]: 11.7 h
- Cmax [1, 14]: 2330 ng/mL
- Tmax [1, 15]: 0.033 h
- AUC(0-inf) [1, 10]: 34600 ng·h/mL
- half-life [1, 10]: 11.5 h
- Cmax [1, 11]: 1700 ng/mL
- Tmax [1, 12]: 4.75 h
- bioavailability [1, 8]: 58.5%
SMILES: Cc1ccc(C(=O)Nc2ccc(CN3CCN(C)CC3)c(C(F)(F)F)c2)cc1C#Cc1cnc(NC2CC2)nc1 [D825 mesylate salt, 3-(2-(2-(cyclopropylamino)pyrimidin-5-yl)ethynyl)-4-methyl-N-(4-((4-methylpiperazin-1-yl)methyl)-3-(trifluoromethyl)phenyl)benzamide trimesylate]

- IC50 ([2]; imatinib-resistant K562R): 59 nM
- GI50 [3, 18]: 29.8 nM
- IC50 ([4]; MTT or CCK8, nM): 1850 nM
- IC50 ([5]; MTT or CCK8, nM): 2.68 nM
SMILES: Cc1cn(-c2cc(NC(=O)c3ccc(C)c(C#Cc4ccc(N)nc4)c3)cc(C(F)(F)F)c2)cn1 [D827, 3-(2-(6-aminopyridin-3-yl)ethynyl)-4-methyl-N-(3-(4-methyl-1H-imidazol-1-yl)-5-(trifluoromethyl)phenyl)benzamide]

- IC50 [2]: 3070 nM
- GI50 ([3]; read-out: IC50 on tumor cell proliferation, BAF3-T315I cells; Ba/F3 expressing BCR/ABL T315I, 72 h, Table 1): 2480 nM
- IC50 [4]: > 100 nM
- IC50 [5]: 30.9 nM
SMILES: Cc1cn(-c2cc(NC(=O)c3ccc(C)c(C#Cc4cnc(NC5CCCCC5)nc4)c3)cc(C(F)(F)F)c2)cn1 [D828, 3-(2-(2-(cyclohexylamino)pyrimidin-5-yl)ethynyl)-4-methyl-N-(3-(4-methyl-1H-imidazol-1-yl)-5-(trifluoromethyl)phenyl)benzamide]

- AUC(0-inf) [1, 13]: 107000 ng·h/mL
- half-life [1, 13]: 5.24 h
- Cmax [1, 14]: 64200 ng/mL
- Tmax [1, 15]: 0.033 h
- AUC(0-inf) [1, 10]: 73900 ng·h/mL
- half-life [1, 10]: 4.66 h
- Cmax [1, 11]: 9520 ng/mL
- Tmax [1, 12]: 2.25 h
- bioavailability [1, 8]: 13.8%
SMILES: Cc1ccc(C(=O)Nc2cc(-n3ccnc3)cc(C(F)(F)F)c2)cc1C#Cc1cnc2[nH]ncc2c1 [D831 mesylate salt, N-(3-(1H-imidazol-1-yl)-5-(trifluoromethyl)phenyl)-3-(2-(1H-pyrazolo[3,4-b]pyridin-5-yl)ethynyl)-4-methylbenzamide]

- AUC(0-inf) [1, 13]: 8540 ng·h/mL
- half-life [1, 13]: 16.9 h
- Cmax [1, 14]: 976 ng/mL
- Tmax [1, 15]: 0.033 h
- AUC(0-inf) [1, 10]: 3470 ng·h/mL
- half-life [1, 10]: 8.81 h
- Cmax [1, 11]: 233 ng/mL
- Tmax [1, 12]: 4 h
- bioavailability [1, 8]: 8.1%
SMILES: Cc1ncn(-c2cc(NC(=O)c3ccc(C)c(C#Cc4cnc5[nH]ncc5c4)c3)cc(C(F)(F)F)c2)n1 [D835 hydrochloride salt, 3-(2-(1H-pyrazolo[3,4-b]pyridin-5-yl)ethynyl)-4-methyl-N-(3-(3-methyl-1H-1,2,4-triazol-1-yl)-5-(trifluoromethyl)phenyl)benzamide]
